Measured values taken from US3971779A, “7-[2-(5-Amino-1,3,4-thiadiazol-2-ylthio)acetamido]cephalosporins” (American Home Products Corporation, priority 1975, dated 1976).
In brackets after ≈: the same amount, converted by molar mass. Where two headings read alike, the source gives them in different places.

Columns and labels:
[1] = system: Salmonella enteritidis 13076; experiment: agar serial dilution MIC; format: cell-based; details: Salmonella enterica, Example 4
Experimental: (§1) A stock solution of 7-[2-(4,5-dihydro-5-imino-1,3,4-thiadiazol-2-ylthio)acetamido]cephalosporanic acid as the hydrobromic acid addition salt containing 2,500 μg. of the active moiety is prepared in phosphate buffer. Two fold serial dilutions are prepared with phosphate buffer. One milliliter (ml.) quantities of each dilution are incorporated in 9 ml. seen agar in sterile Petri plates. The hardened surface is innoculated with test organisms using a Steers replicating device. The plates are incubated at 35° C. for 18 hours.
(§2) The test organisms are Bacillus subtilis (BA SU) 6633; Staphylococcus aureus (ST AU) 6538P, Smith CHP, and 3-180; Mycobacterium smegmatis (MY SM) 10143; Neisseria catarrhalis (NE CA) 8193; Pseudonomas aeruginosa (PS AE) 10145; Escherichia coli (ES CO) 9637, and 920; Escherichia intermedia (ES IN) 65-1; Salmonella paratyphi (SA PA) 11737; Enterobacter aerogenes (EN AE) 13048; Klebsiella pneumoniae (KL PN) 10031; Bordetella bronchiseptica (BO BR) 4617; Proteus vulgaris (PR VU) 6896; and Herellea species (HE SP) 9955. These organisms are grown for 18 hours in Brain heart infusion at 35° C. Prior to use the cultures are diluted 10 fold with the infusion, except in the case of Mycobacterium. The latter is grown in Emerson's broth for 5 days at 28° C. in shaker flasks and used undiluted.
(§3) Following the procedure of Example 2 but substituting the organisms listed below the same preparation of 7-[2-(4,5-dihydro-5-imino-1,3,4-thiadiazol-2-ylthio)acetamido]cephalosporanic acid (Compound A) as used in Example 3, a third sample of the same compound, prepared as described in Example 1 (Compound B) and 7-[2-(5-acetamido-1,3,4-thiadiazol-2-ylthio)acetamido]cephalosporanic acid (Compound C) are tested to obtain the results shown: […]

Arizona arizonae 13314 = experiment: agar serial dilution MIC; format: cell-based
Experimental: as §1, §2, §3

[2] = system: Providencia stuartii 25825; experiment: agar serial dilution MIC; format: cell-based; details: Example 4
Experimental: as §1, §2, §3

[3] = system: Enterobacter agglomerans 27155; experiment: agar serial dilution MIC; format: cell-based
Experimental: as §1, §2, §3

[4] = system: Klebsiella rhinoscleromatis 13884; experiment: agar serial dilution MIC; format: cell-based; details: Klebsiella pneumoniae, Example 4
Experimental: as §1, §2, §3

[5] = system: Providencia alcalifaciens 9886; experiment: agar serial dilution MIC; format: cell-based; details: Example 4
Experimental: as §1, §2, §3

[6] = system: Salmonella cholera-suis 13312; experiment: agar serial dilution MIC; format: cell-based
Experimental: as §1, §2, §3

Shigella sonnei 11060 = experiment: agar serial dilution MIC; format: cell-based; details: Example 4
Experimental: as §1, §2, §3

Klebsiella ozaenae 11296 = experiment: agar serial dilution MIC; format: cell-based
Experimental: as §1, §2, §3

Salmonella typhi 19430 = experiment: agar serial dilution MIC; format: cell-based; details: Salmonella enterica
Experimental: as §1, §2, §3

[7] = system: Serratia marcescens 13880; experiment: agar serial dilution MIC; format: cell-based; details: Example 4
Experimental: as §1, §2, §3

Edwardsiella tarda 15947 = experiment: agar serial dilution MIC; format: cell-based
Experimental: as §1, §2, §3

Proteus rettgeri 9918 = experiment: agar serial dilution MIC; format: cell-based; details: Providencia rettgeri, Example 4
Experimental: as §1, §2, §3

Proteus mirabilis 9921 = experiment: agar serial dilution MIC; format: cell-based; details: Example 4
Experimental: as §1, §2, §3

[8] = system: Staphylococcus aureaus CHP; experiment: mice infected intraperitoneally, single dose six hours post-infection, deaths and CD50; format: in vivo; details: for ED50: Staphylococcus, po, single dose, mice; for Deaths / Total No. Treated: oral
Experimental: Mice are infected intraperitoneally with a standardized suspension of Staphylococcus aureaus CHP in 5% gastric mucin. The animals are randomized. Six hours post-infection a single dose of the compound indicated is administered by the route indicated. The animals are observed for a 30 day period and deaths are recorded daily. The CD50 for 14 and 30 days as determined by the method of Reed and Muench, American Journal of Hygiene (1938), for each compound is tabulated:
7-[2-(5-Acetylamino-1,3,4-thiadiazol-2-ylthio)acetamido]cephalosporanic acid is tested as described in Example 5.

CC(=O)OCC1=C(C(=O)O)N2C(=O)C(NC(=O)CSc3n[nH]c(=N)s3)C2SC1 (stereo not drawn) [7-[2-(4,5-Dihydro-5-Imino-1,3,4-Thiadiazol-2-ylthio)Acetamido]Cephalosporanic Acid] showed an MIC [1] of 1.95 µg/mL (≈ 4.38 µM), an MIC (Arizona arizonae 13314; Salmonella enterica, 13314, Example 4) of 1.95 µg/mL (≈ 4.38 µM) and an MIC (Arizona arizonae 13314; Salmonella enterica, 13314, Example 4, read-out: MIC) of 3.9 µg/mL (≈ 8.75 µM). The MIC [2] was 250 µg/mL (≈ 561 µM), the MIC ([3]; Pantoea agglomerans, 27155, Example 4) was 7.81 µg/mL (≈ 17.5 µM) and the MIC ([3]; Pantoea agglomerans, 27155, Example 4, read-out: MIC) was 15.6 µg/mL (≈ 35 µM). For the same compound, the MIC [4] was over 250 µg/mL, the MIC [5] was over 250 µg/mL and the MIC [6] was 1.95 µg/mL (≈ 4.38 µM). For the same compound, the MIC (Shigella sonnei 11060) was 62.5 µg/mL (≈ 140 µM), the MIC (Klebsiella ozaenae 11296) was 1.95 µg/mL (≈ 4.38 µM) and the MIC (Salmonella typhi 19430) was 1.95 µg/mL (≈ 4.38 µM). The MIC [7] was over 250 µg/mL, the MIC (Edwardsiella tarda 15947; Edwardsiella tarda, 15947, Example 4) was 31.3 µg/mL (≈ 70.3 µM) and the MIC (Edwardsiella tarda 15947; Edwardsiella tarda, 15947, Example 4, read-out: MIC) was 15.6 µg/mL (≈ 35 µM). The MIC (Proteus rettgeri 9918) was 250 µg/mL (≈ 561 µM), the MIC (Proteus mirabilis 9921) was 7.81 µg/mL (≈ 17.5 µM) and the ED50 ([8]; 336 h, 14 Days) was 3.21 mg/kg. For the same compound, the ED50 ([8]; 720 h, 30 Days) was 3.4 mg/kg, the “Deaths / Total No. Treated” value ([8]; 100 mg/kg., 14 Days) was 10/10 and the “Deaths / Total No. Treated” value ([8]; 100 mg/kg., 30 Days) was 10/10. The “Deaths / Total No. Treated” value ([8]; 200 mg/kg., 14 Days) was 4/10, the “Deaths / Total No. Treated” value ([8]; 200 mg/kg., 30 Days) was 4/10 and the “Deaths / Total No. Treated” value ([8]; 400 mg/kg., 14 Days) was 0/10. For the same compound, the “Deaths / Total No. Treated” value ([8]; 400 mg/kg., 30 Days) was 0/10, the “Deaths / Total No. Treated” value ([8]; 800 mg/kg., 14 Days) was 0/10 and the “Deaths / Total No. Treated” value ([8]; 800 mg/kg., 30 Days) was 1/10.
